Source: the NIST ThermoML archive (doi:10.1016/j.jct.2015.09.020)

Assay: mn = molality of the nth substance listed, in mol/kg
Details: 101.3 kPa, Liquid

Cl.NCC(=O)O [glycine hydrochloride] + O
Details | speed of sound [m/s]
278.15 K, Frequency=2 MHz, Linear variable-path acoustic interferometer, m1 = 0.0508 | 1430.8
278.15 K, Frequency=2 MHz, Linear variable-path acoustic interferometer, m1 = 0.0811 | 1433.6
278.15 K, Frequency=2 MHz, Linear variable-path acoustic interferometer, m1 = 0.1008 | 1435
278.15 K, Frequency=2 MHz, Linear variable-path acoustic interferometer, m1 = 0.1202 | 1436.2
278.15 K, Frequency=2 MHz, Linear variable-path acoustic interferometer, m1 = 0.1499 | 1438.3
278.15 K, Frequency=2 MHz, Linear variable-path acoustic interferometer, m1 = 0.1801 | 1441.1
278.15 K, Frequency=2 MHz, Linear variable-path acoustic interferometer, m1 = 0.2112 | 1443.2
278.15 K, Frequency=2 MHz, Linear variable-path acoustic interferometer, m1 = 0.2325 | 1445.3
278.15 K, Frequency=2 MHz, Linear variable-path acoustic interferometer, m1 = 0.2472 | 1445.9
278.15 K, Frequency=2 MHz, Linear variable-path acoustic interferometer, m1 = 0.2732 | 1448
278.15 K, Frequency=2 MHz, Linear variable-path acoustic interferometer, m1 = 0.2995 | 1449.7
278.15 K, Frequency=2 MHz, Linear variable-path acoustic interferometer, m1 = 0.3208 | 1451.3
278.15 K, Frequency=2 MHz, Linear variable-path acoustic interferometer, m1 = 0.3529 | 1454.1
288.15 K, Frequency=3 MHz, Sing-around technique in a fixed-path interferometer, m1 = 0.05 | 1469.8
288.15 K, Frequency=3 MHz, Sing-around technique in a fixed-path interferometer, m1 = 0.0802 | 1471.7
288.15 K, Frequency=3 MHz, Sing-around technique in a fixed-path interferometer, m1 = 0.1002 | 1473.1
288.15 K, Frequency=3 MHz, Sing-around technique in a fixed-path interferometer, m1 = 0.1216 | 1474.5
288.15 K, Frequency=3 MHz, Sing-around technique in a fixed-path interferometer, m1 = 0.1506 | 1476.6
288.15 K, Frequency=3 MHz, Sing-around technique in a fixed-path interferometer, m1 = 0.1821 | 1479
288.15 K, Frequency=3 MHz, Sing-around technique in a fixed-path interferometer, m1 = 0.21 | 1480.8
288.15 K, Frequency=3 MHz, Sing-around technique in a fixed-path interferometer, m1 = 0.2318 | 1482.2
288.15 K, Frequency=3 MHz, Sing-around technique in a fixed-path interferometer, m1 = 0.2508 | 1483.4
288.15 K, Frequency=3 MHz, Sing-around technique in a fixed-path interferometer, m1 = 0.2723 | 1484.8
288.15 K, Frequency=3 MHz, Sing-around technique in a fixed-path interferometer, m1 = 0.3012 | 1486.4
288.15 K, Frequency=3 MHz, Sing-around technique in a fixed-path interferometer, m1 = 0.3205 | 1488.1
288.15 K, Frequency=3 MHz, Sing-around technique in a fixed-path interferometer, m1 = 0.3534 | 1489.9
298.15 K, Frequency=3 MHz, Sing-around technique in a fixed-path interferometer, m1 = 0.0515 | 1500
298.15 K, Frequency=3 MHz, Sing-around technique in a fixed-path interferometer, m1 = 0.0839 | 1502
298.15 K, Frequency=3 MHz, Sing-around technique in a fixed-path interferometer, m1 = 0.1035 | 1503.3
298.15 K, Frequency=3 MHz, Sing-around technique in a fixed-path interferometer, m1 = 0.1305 | 1504.9
298.15 K, Frequency=3 MHz, Sing-around technique in a fixed-path interferometer, m1 = 0.1453 | 1505.9
298.15 K, Frequency=3 MHz, Sing-around technique in a fixed-path interferometer, m1 = 0.185 | 1508.2
298.15 K, Frequency=3 MHz, Sing-around technique in a fixed-path interferometer, m1 = 0.2073 | 1509.4
298.15 K, Frequency=3 MHz, Sing-around technique in a fixed-path interferometer, m1 = 0.2401 | 1511.3
298.15 K, Frequency=3 MHz, Sing-around technique in a fixed-path interferometer, m1 = 0.2727 | 1513.2
298.15 K, Frequency=3 MHz, Sing-around technique in a fixed-path interferometer, m1 = 0.3029 | 1514.9
298.15 K, Frequency=3 MHz, Sing-around technique in a fixed-path interferometer, m1 = 0.3177 | 1515.8
298.15 K, Frequency=3 MHz, Sing-around technique in a fixed-path interferometer, m1 = 0.3535 | 1517.9

Details | mass density [kg/m3]
278.15 K, Pycnometric method, m1 = 0.0508 | 1002.4
278.15 K, Pycnometric method, m1 = 0.0811 | 1003.61
278.15 K, Pycnometric method, m1 = 0.1008 | 1004.87
278.15 K, Pycnometric method, m1 = 0.1202 | 1005.41
278.15 K, Pycnometric method, m1 = 0.1499 | 1006.88
278.15 K, Pycnometric method, m1 = 0.1801 | 1008.05
278.15 K, Pycnometric method, m1 = 0.2112 | 1009.37
278.15 K, Pycnometric method, m1 = 0.2325 | 1010.42
278.15 K, Pycnometric method, m1 = 0.2472 | 1011.07
278.15 K, Pycnometric method, m1 = 0.2732 | 1012.17
278.15 K, Pycnometric method, m1 = 0.2995 | 1013.21
278.15 K, Pycnometric method, m1 = 0.3208 | 1014.01
278.15 K, Pycnometric method, m1 = 0.3529 | 1015.11
288.15 K, Vibrating tube method, m1 = 0.05 | 1001.39
288.15 K, Vibrating tube method, m1 = 0.0802 | 1002.72
288.15 K, Vibrating tube method, m1 = 0.1002 | 1003.61
288.15 K, Vibrating tube method, m1 = 0.1216 | 1004.54
288.15 K, Vibrating tube method, m1 = 0.1506 | 1005.74
288.15 K, Vibrating tube method, m1 = 0.1821 | 1007.14
288.15 K, Vibrating tube method, m1 = 0.21 | 1008.37
288.15 K, Vibrating tube method, m1 = 0.2318 | 1009.27
288.15 K, Vibrating tube method, m1 = 0.2508 | 1010.04
288.15 K, Vibrating tube method, m1 = 0.2723 | 1010.95
288.15 K, Vibrating tube method, m1 = 0.3012 | 1012.17
288.15 K, Vibrating tube method, m1 = 0.3205 | 1012.97
288.15 K, Vibrating tube method, m1 = 0.3534 | 1014.37
298.15 K, Vibrating tube method, m1 = 0.0839 | 1000.75
298.15 K, Vibrating tube method, m1 = 0.1035 | 1001.57
298.15 K, Vibrating tube method, m1 = 0.1305 | 1002.87
298.15 K, Vibrating tube method, m1 = 0.1453 | 1003.51
298.15 K, Vibrating tube method, m1 = 0.185 | 1005.13
298.15 K, Vibrating tube method, m1 = 0.2073 | 1005.96
298.15 K, Vibrating tube method, m1 = 0.2401 | 1007.29
298.15 K, Vibrating tube method, m1 = 0.2727 | 1008.59
298.15 K, Vibrating tube method, m1 = 0.3029 | 1009.81
298.15 K, Vibrating tube method, m1 = 0.3177 | 1010.44
298.15 K, Vibrating tube method, m1 = 0.3535 | 1011.84
